Measurements as given in paper PMC11207571, “Applicability of MDR1 Overexpressing Abcb1KO-MDCKII Cell Lines for Investigating In Vitro Species Differences and Brain Penetration Prediction” (Pharmaceutics, 2024).

Columns and labels:
rat Mdr1a = rat Mdr1a (Rattus norvegicus, UniProt Q6PSM0); assay: Bidirectional transport assay, efflux ratio in Abcb1KO-MDCKII rMDR1 cells; details: rat, pH 7.4
Description: (§1) Eluent A consisted of 0.1% formic acid in water, eluent B consisted of 0.1% formic acid in acetonitrile. Then, 10 µL samples were injected into the HPLC-MS/MS system. Mass spectrometric detection was performed in SRM mode, and ion transitions for each analyte were optimized during method development. Samples were analyzed in pools, with each pool containing three to four analytes.

human BCRP = molecular target: T1, human BCRP (Homo sapiens, UniProt Q9UNQ0); assay: Bidirectional transport assay, efflux ratio in MDCKII-BCRP cells; details: human, pH 7.4
T1 sequence (Q9UNQ0 1-655): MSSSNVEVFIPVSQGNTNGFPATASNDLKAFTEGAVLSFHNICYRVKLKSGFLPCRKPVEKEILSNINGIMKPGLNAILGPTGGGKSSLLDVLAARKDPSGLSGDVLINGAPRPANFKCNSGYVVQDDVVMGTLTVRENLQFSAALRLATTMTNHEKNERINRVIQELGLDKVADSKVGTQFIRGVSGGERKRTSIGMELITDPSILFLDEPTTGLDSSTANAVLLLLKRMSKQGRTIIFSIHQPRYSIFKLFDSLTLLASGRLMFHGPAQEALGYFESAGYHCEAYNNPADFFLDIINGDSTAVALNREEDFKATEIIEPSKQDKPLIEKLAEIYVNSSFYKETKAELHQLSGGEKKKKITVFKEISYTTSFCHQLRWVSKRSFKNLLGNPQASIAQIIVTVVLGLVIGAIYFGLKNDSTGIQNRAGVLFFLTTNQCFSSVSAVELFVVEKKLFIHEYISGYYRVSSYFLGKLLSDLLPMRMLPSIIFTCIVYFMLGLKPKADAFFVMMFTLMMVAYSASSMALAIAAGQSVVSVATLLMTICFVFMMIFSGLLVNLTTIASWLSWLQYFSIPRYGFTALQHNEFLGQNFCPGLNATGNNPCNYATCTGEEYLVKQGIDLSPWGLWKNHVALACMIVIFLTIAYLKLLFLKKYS
Description: as §1

[1] = Bidirectional transport assay, efflux ratio in Abcb1KO-MDCKII-Mock control cells; details: dog, MDCK, pH 7.4
Description: as §1

mouse Mdr1a = mouse Mdr1a (Mus musculus, UniProt P21447); assay: Bidirectional transport assay, efflux ratio in Abcb1KO-MDCKII mMDR1 cells; details: mouse, pH 7.4
Description: as §1

human MDR1 = human MDR1 (Homo sapiens, UniProt P08183); assay: Bidirectional transport assay, efflux ratio in Abcb1KO-MDCKII hMDR1 cells; details: human, MDCK-MDR1, pH 7.4
Description: as §1

cynomolgus monkey Mdr1 = cynomolgus monkey Mdr1 (Macaca fascicularis, UniProt Q8HZQ6); assay: Bidirectional transport assay, efflux ratio in Abcb1KO-MDCKII cyMDR1 cells; details: cynomolgus monkey, pH 7.4
Description: as §1

Sequence of rat Mdr1a (Q6PSM0 1-1272): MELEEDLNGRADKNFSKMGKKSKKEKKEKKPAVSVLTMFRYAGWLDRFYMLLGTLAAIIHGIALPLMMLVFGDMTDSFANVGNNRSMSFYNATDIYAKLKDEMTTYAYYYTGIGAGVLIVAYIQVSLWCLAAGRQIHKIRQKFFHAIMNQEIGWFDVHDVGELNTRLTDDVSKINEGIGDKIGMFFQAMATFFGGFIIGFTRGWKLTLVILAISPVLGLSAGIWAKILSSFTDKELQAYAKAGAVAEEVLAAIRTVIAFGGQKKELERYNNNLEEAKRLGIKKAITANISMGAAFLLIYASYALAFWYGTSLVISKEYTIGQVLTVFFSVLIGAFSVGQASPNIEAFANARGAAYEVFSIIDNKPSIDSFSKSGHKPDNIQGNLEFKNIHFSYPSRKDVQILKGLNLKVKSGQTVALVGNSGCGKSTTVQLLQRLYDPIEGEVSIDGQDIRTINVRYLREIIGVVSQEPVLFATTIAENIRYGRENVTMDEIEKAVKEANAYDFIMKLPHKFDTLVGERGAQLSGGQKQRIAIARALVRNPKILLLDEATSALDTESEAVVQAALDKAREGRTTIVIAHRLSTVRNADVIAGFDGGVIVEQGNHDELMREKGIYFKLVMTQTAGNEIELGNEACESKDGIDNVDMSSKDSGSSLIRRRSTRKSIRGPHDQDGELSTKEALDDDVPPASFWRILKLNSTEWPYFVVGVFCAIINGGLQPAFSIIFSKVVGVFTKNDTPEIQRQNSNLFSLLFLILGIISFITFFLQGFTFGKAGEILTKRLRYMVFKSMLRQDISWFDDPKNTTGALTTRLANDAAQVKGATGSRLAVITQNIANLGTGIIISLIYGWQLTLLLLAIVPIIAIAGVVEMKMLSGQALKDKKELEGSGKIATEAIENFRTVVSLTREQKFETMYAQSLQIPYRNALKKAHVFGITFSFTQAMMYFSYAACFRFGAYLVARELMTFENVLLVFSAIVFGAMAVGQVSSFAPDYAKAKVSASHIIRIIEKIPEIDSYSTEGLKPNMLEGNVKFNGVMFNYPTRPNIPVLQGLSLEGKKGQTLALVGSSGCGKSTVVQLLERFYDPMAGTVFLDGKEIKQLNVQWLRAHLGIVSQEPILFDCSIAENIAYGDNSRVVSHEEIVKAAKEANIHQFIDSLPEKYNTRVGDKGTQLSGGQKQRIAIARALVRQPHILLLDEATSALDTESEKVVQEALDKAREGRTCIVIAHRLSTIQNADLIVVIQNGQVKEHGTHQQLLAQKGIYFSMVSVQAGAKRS
Sequence of human MDR1 (P08183 whole entry): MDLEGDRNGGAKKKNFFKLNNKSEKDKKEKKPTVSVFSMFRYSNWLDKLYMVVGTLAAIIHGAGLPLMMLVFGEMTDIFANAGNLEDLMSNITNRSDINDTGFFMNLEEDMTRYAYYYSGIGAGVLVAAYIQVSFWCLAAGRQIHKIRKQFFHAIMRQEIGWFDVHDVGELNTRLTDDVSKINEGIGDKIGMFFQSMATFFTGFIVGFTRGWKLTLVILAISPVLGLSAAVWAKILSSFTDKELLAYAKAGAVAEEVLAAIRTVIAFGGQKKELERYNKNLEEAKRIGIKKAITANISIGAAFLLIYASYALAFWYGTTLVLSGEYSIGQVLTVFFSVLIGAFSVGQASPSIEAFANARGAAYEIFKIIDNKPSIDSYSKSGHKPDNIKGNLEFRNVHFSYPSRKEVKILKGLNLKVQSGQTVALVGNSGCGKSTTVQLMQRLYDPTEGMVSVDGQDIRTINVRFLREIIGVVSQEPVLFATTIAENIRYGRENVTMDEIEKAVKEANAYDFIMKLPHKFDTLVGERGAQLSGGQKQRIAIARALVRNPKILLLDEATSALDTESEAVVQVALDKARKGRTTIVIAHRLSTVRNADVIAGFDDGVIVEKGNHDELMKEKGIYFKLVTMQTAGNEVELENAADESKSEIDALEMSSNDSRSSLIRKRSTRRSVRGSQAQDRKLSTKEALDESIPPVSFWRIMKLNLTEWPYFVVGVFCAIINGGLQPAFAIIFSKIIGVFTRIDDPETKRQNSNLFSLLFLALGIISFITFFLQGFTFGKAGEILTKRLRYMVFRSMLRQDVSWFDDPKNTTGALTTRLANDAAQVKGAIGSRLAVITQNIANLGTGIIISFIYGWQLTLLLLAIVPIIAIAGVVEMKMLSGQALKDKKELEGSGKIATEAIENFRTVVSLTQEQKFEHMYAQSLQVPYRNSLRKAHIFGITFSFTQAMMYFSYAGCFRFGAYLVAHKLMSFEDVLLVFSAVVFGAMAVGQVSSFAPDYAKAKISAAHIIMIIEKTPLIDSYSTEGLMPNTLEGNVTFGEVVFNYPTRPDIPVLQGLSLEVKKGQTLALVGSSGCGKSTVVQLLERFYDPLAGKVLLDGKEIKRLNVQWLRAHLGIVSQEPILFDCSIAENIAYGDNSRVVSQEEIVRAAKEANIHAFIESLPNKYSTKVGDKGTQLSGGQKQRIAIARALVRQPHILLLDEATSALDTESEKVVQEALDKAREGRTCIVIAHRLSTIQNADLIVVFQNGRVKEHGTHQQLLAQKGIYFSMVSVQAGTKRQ
Sequence of cynomolgus monkey Mdr1 (Q8HZQ6 1-1283): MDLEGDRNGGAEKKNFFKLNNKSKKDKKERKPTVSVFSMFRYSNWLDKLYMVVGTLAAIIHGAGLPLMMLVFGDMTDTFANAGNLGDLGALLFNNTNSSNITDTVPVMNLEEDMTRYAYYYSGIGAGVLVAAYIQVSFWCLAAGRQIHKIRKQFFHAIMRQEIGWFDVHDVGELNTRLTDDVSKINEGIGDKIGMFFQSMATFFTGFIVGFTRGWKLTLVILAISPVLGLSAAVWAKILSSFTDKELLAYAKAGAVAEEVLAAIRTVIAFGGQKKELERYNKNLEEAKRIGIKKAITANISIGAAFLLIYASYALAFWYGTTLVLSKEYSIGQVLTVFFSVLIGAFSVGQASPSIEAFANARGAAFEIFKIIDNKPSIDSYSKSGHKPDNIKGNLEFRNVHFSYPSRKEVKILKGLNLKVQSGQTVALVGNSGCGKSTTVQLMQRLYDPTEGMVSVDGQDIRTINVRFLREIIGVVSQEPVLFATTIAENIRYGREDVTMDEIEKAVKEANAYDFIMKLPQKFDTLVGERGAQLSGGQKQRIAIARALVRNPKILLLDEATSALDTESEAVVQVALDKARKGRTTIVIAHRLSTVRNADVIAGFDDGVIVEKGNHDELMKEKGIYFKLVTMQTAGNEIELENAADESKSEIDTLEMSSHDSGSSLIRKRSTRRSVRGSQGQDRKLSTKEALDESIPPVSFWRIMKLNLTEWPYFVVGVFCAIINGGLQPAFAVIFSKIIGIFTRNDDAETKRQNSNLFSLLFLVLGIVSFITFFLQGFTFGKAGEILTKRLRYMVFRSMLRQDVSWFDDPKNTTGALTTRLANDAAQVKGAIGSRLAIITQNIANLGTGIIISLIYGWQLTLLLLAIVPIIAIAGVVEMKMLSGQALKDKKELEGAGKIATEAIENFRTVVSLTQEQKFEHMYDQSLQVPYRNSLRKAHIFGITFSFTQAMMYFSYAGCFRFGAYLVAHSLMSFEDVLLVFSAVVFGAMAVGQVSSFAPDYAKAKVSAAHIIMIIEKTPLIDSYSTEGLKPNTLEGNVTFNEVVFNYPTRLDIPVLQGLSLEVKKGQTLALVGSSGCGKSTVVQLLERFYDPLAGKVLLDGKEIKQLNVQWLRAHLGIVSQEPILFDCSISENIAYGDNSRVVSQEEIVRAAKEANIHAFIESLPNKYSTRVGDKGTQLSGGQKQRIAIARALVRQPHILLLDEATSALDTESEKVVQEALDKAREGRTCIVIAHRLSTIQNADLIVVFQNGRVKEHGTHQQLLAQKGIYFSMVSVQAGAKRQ
Sequence of mouse Mdr1a (P21447 whole entry): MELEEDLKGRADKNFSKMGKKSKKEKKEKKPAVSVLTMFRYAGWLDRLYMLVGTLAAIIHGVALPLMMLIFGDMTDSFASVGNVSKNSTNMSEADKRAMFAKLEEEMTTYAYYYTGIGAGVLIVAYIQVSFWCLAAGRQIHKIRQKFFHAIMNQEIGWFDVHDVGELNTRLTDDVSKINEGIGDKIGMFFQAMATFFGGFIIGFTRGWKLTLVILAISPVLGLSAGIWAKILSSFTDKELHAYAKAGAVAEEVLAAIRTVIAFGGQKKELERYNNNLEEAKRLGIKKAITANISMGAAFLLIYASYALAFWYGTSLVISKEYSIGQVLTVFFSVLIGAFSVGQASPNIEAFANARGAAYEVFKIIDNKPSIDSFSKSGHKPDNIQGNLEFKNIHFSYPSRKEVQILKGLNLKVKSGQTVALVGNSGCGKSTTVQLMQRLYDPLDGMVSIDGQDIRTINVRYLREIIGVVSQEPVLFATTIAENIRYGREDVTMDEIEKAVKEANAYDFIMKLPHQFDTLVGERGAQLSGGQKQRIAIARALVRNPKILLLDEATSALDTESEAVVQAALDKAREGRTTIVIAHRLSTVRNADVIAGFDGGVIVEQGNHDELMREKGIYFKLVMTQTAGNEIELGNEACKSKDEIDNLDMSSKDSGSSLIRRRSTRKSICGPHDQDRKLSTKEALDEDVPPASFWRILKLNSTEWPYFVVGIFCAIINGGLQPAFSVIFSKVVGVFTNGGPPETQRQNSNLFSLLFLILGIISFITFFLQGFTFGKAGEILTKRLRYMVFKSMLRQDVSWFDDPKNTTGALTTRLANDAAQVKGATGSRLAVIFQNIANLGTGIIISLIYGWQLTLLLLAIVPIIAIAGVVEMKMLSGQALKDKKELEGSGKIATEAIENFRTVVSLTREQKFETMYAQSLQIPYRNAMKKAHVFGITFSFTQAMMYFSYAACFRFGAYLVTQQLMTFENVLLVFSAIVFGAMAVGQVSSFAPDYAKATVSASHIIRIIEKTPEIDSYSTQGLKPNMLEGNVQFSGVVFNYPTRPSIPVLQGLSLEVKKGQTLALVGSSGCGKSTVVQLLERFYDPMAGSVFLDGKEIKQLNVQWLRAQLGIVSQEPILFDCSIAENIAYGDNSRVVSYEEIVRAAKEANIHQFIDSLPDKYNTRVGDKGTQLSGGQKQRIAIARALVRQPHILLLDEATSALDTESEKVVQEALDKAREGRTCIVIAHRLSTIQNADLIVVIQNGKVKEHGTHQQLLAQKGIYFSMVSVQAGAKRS

In the case of NC(N)=Nc1nc(CSCCC(N)=NS(N)(=O)=O)cs1 [Famotidine], the efflux ratio at 120 min, 1 µM (rat Mdr1a) is reported as 1.08 ± 0.09, the efflux ratio at 120 min, 1 µM (human BCRP) is reported as 0.59 ± 0.23 and the efflux ratio at 120 min, 1 µM [1] is reported as 1.05 ± 0.04. The efflux ratio at 120 min, 1 µM (mouse Mdr1a) was 0.97 ± 0.06, the efflux ratio at 120 min, 1 µM (human MDR1) was 1.08 ± 0.04 and the efflux ratio at 120 min, 1 µM (cynomolgus monkey Mdr1) was 0.94 ± 0.15.

Cc1ccc(NC(=O)c2ccc(CN3CCN(C)CC3)cc2)cc1Nc1nccc(-c2cccnc2)n1 [Imatinib] showed an efflux ratio at 120 min, 1 µM (rat Mdr1a) of 29.1 ± 1.26, an efflux ratio at 120 min, 1 µM (human BCRP) of 49.2 ± 0.99 and an efflux ratio at 120 min, 1 µM [1] of 0.99 ± 0.11. The efflux ratio at 120 min, 1 µM (mouse Mdr1a) was 23.1 ± 1.52, the efflux ratio at 120 min, 1 µM (human MDR1) was 60.2 ± 4.74 and the efflux ratio at 120 min, 1 µM (cynomolgus monkey Mdr1) was 10.5 ± 0.6.

In the case of CCN1CCCC1CNC(=O)c1cc(S(=O)(=O)CC)c(N)cc1OC (stereo not drawn) [Amisulpride], the efflux ratio at 120 min, 1 µM (rat Mdr1a) is reported as 10.5 ± 1.16, the efflux ratio at 120 min, 1 µM (human BCRP) is reported as 28.9 ± 3.47 and the efflux ratio at 120 min, 1 µM [1] is reported as 1.19 ± 0.07. For the same molecule, the efflux ratio at 120 min, 1 µM (mouse Mdr1a) was 11.8 ± 0.85, the efflux ratio at 120 min, 1 µM (human MDR1) was 18.7 ± 1.92 and the efflux ratio at 120 min, 1 µM (cynomolgus monkey Mdr1) was 6.22 ± 0.32.

With CNC(=C[N+](=O)[O-])NCCSCc1ccc(CN(C)C)o1 [Ranitidine] the efflux ratio at 120 min, 1 µM (rat Mdr1a) was 2.63 ± 0.19, the efflux ratio at 120 min, 1 µM (human BCRP) was 10.3 ± 0.96 and the efflux ratio at 120 min, 1 µM [1] was 0.91 ± 0.06. It also gave an efflux ratio at 120 min, 1 µM (mouse Mdr1a) of 2.09 ± 0.3, an efflux ratio at 120 min, 1 µM (human MDR1) of 2.89 ± 0.15 and an efflux ratio at 120 min, 1 µM (cynomolgus monkey Mdr1) of 2.14 ± 0.25.

In the case of CN(C)CCCN1c2ccccc2CCc2ccccc21 [Imipramine], the efflux ratio at 120 min, 1 µM (rat Mdr1a) is reported as 0.83 ± 0.08, the efflux ratio at 120 min, 1 µM (human BCRP) is reported as 0.6 ± 0.06 and the efflux ratio at 120 min, 1 µM [1] is reported as 0.62 ± 0.04. For the same molecule, the efflux ratio at 120 min, 1 µM (mouse Mdr1a) was 0.9 ± 0.05, the efflux ratio at 120 min, 1 µM (human MDR1) was 1.08 ± 0.05 and the efflux ratio at 120 min, 1 µM (cynomolgus monkey Mdr1) was 0.82 ± 0.09.

With O=C(O)CCCN1CCC(O[C@@H](c2ccc(Cl)cc2)c2ccccn2)CC1 [Bepotastine] the efflux ratio at 120 min, 1 µM (rat Mdr1a) was 8.86 ± 1.16, the efflux ratio at 120 min, 1 µM (human BCRP) was 2.19 ± 0.3 and the efflux ratio at 120 min, 1 µM [1] was 1.62 ± 0.17. It also gave an efflux ratio at 120 min, 1 µM (mouse Mdr1a) of 10 ± 1.31, an efflux ratio at 120 min, 1 µM (human MDR1) of 9.51 ± 0.45 and an efflux ratio at 120 min, 1 µM (cynomolgus monkey Mdr1) of 7.91 ± 1.59.

Work on CC(C)(C)c1ccc(C(O)CCCN2CCC(C(O)(c3ccccc3)c3ccccc3)CC2)cc1 (stereo not drawn) [Terfenadine] yielded an efflux ratio at 120 min, 1 µM (rat Mdr1a) of 1.29 ± 0.14, an efflux ratio at 120 min, 1 µM (human BCRP) of 2.96 ± 0.31 and an efflux ratio at 120 min, 1 µM [1] of 0.88 ± 0.06. The efflux ratio at 120 min, 1 µM (mouse Mdr1a) was 2.64 ± 0.33, the efflux ratio at 120 min, 1 µM (human MDR1) was 10.7 ± 0.78 and the efflux ratio at 120 min, 1 µM (cynomolgus monkey Mdr1) was 0.92 ± 0.14.

With Cc1cc(=O)n(-c2ccccc2)n1C [Antipyrine] the efflux ratio at 120 min, 1 µM (rat Mdr1a) was 0.65 ± 0.03, the efflux ratio at 120 min, 1 µM (human BCRP) was 0.84 ± 0.02 and the efflux ratio at 120 min, 1 µM [1] was 0.65 ± 0.02. The efflux ratio at 120 min, 1 µM (mouse Mdr1a) was 0.66 ± 0.04, the efflux ratio at 120 min, 1 µM (human MDR1) was 0.75 ± 0.05 and the efflux ratio at 120 min, 1 µM (cynomolgus monkey Mdr1) was 0.67 ± 0.02.

C[C@]12C=CC(=O)C=C1CC[C@@H]1[C@@H]2C(=O)C[C@@]2(C)[C@H]1CC[C@]2(O)C(=O)CO [Prednisone] gave an efflux ratio at 120 min, 1 µM (rat Mdr1a) of 9.6 ± 1.82, an efflux ratio at 120 min, 1 µM (human BCRP) of 1.33 ± 0.1 and an efflux ratio at 120 min, 1 µM [1] of 0.82 ± 0.11. It also gave an efflux ratio at 120 min, 1 µM (mouse Mdr1a) of 6.6 ± 0.57, an efflux ratio at 120 min, 1 µM (human MDR1) of 17.3 ± 2.38 and an efflux ratio at 120 min, 1 µM (cynomolgus monkey Mdr1) of 4.41 ± 0.52.

Work on CC/C(=C(\c1ccccc1)c1ccc(OCCN(C)C)cc1)c1ccccc1 [Tamoxifen] yielded an efflux ratio at 120 min, 1 µM (rat Mdr1a) of 1.61 ± 0.18, an efflux ratio at 120 min, 1 µM (human BCRP) of 0.81 ± 0.14 and an efflux ratio at 120 min, 1 µM [1] of 2.25 ± 1.24. The efflux ratio at 120 min, 1 µM (mouse Mdr1a) was 2.26 ± 0.76, the efflux ratio at 120 min, 1 µM (human MDR1) was 1.65 ± 0.24 and the efflux ratio at 120 min, 1 µM (cynomolgus monkey Mdr1) was 1.81 ± 0.51.

Molecule CC(=O)O[C@H]1C(=O)[C@@]2(C)[C@H]([C@H](OC(=O)c3ccccc3)[C@]3(O)C[C@H](OC(=O)[C@H](O)[C@@H](NC(=O)c4ccccc4)c4ccccc4)C(C)=C1C3(C)C)[C@]1(OC(C)=O)CO[C@@H]1C[C@@H]2O [Paclitaxel] has an efflux ratio at 120 min, 1 µM (rat Mdr1a) of 82.9 ± 41.1, an efflux ratio at 120 min, 1 µM (human BCRP) of 63.8 ± 28.5 and an efflux ratio at 120 min, 1 µM [1] of 2.52 ± 0.51. For the same molecule, the efflux ratio at 120 min, 1 µM (mouse Mdr1a) was 57.7 ± 17, the efflux ratio at 120 min, 1 µM (human MDR1) was 40.2 ± 12.6 and the efflux ratio at 120 min, 1 µM (cynomolgus monkey Mdr1) was 33.4 ± 5.69.

Work on CC(C)(C)NC(=O)[C@@H]1CN(Cc2cccnc2)CCN1C[C@@H](O)C[C@@H](Cc1ccccc1)C(=O)N[C@H]1c2ccccc2C[C@H]1O [Indinavir] yielded an efflux ratio at 120 min, 1 µM (rat Mdr1a) of 10.9 ± 1.21, an efflux ratio at 120 min, 1 µM (human BCRP) of 29.7 ± 3.69 and an efflux ratio at 120 min, 1 µM [1] of 0.93 ± 0.31. For the same molecule, the efflux ratio at 120 min, 1 µM (mouse Mdr1a) was 11.2 ± 2.53, the efflux ratio at 120 min, 1 µM (human MDR1) was 33.2 ± 1.69 and the efflux ratio at 120 min, 1 µM (cynomolgus monkey Mdr1) was 34.8 ± 10.4.

In the case of N=C(N)NC(=O)Cc1c(Cl)cccc1Cl [Guanfacine], the efflux ratio at 120 min, 1 µM (rat Mdr1a) is reported as 0.97 ± 0.12, the efflux ratio at 120 min, 1 µM (human BCRP) is reported as 0.32 ± 0.08 and the efflux ratio at 120 min, 1 µM [1] is reported as 0.63 ± 0.06. The efflux ratio at 120 min, 1 µM (mouse Mdr1a) was 1.62 ± 0.16, the efflux ratio at 120 min, 1 µM (human MDR1) was 2.04 ± 0.21 and the efflux ratio at 120 min, 1 µM (cynomolgus monkey Mdr1) was 0.65 ± 0.11.

COc1ccc2c(c1)[C@]13CCCC[C@@H]1[C@H](C2)N(C)CC3 [Dextromethorphan] gave an efflux ratio at 120 min, 1 µM (rat Mdr1a) of 0.94 ± 0.09, an efflux ratio at 120 min, 1 µM (human BCRP) of 0.66 ± 0.08 and an efflux ratio at 120 min, 1 µM [1] of 0.98 ± 0.1. For the same molecule, the efflux ratio at 120 min, 1 µM (mouse Mdr1a) was 0.78 ± 0.05, the efflux ratio at 120 min, 1 µM (human MDR1) was 1.03 ± 0.08 and the efflux ratio at 120 min, 1 µM (cynomolgus monkey Mdr1) was 0.75 ± 0.06.
